The record followed here is the supplement of paper PMC10307832.

Holding throughout (experiment): relative viability (nuclei count vs DMSO), 5 days (fraction); higher = more cells survive
Compound in the assay “Bexarotene + Palbociclib”: C=C(c1ccc(C(=O)O)cc1)c1cc2c(cc1C)C(C)(C)CCC2(C)C [Bexarotene] + CC(=O)c1c(C)c2cnc(Nc3ccc(N4CCNCC4)cn3)nc2n(C2CCCC2)c1=O [Palbociclib] (partner 0.5 µM)
The gist of the method:
(§1)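 Lung cancer cell lines, seeded in 1536-well plates, were treated the following day by pin tool with a single drug or with five library-drug doses (not always all listed) in √10 steps on top of a fixed anchor-drug dose. Cells were fixed and nuclei stained in one step after 5 days, and nuclei were counted. Relative viability is the nuclei count for treated wells divided by that for vehicle wells, reported as medians of duplicate plates.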

Compound in the assay “Bexarotene + Crizotinib”: C=C(c1ccc(C(=O)O)cc1)c1cc2c(cc1C)C(C)(C)CCC2(C)C [Bexarotene] + C[C@@H](Oc1cc(-c2cnn(C3CCNCC3)c2)cnc1N)c1c(Cl)ccc(F)c1Cl [Crizotinib] (partner 1 µM)
The gist of the method:
as §1

Compound in the assay “Bexarotene + AZD7762”: C=C(c1ccc(C(=O)O)cc1)c1cc2c(cc1C)C(C)(C)CCC2(C)C [Bexarotene] + NC(=O)Nc1cc(-c2cccc(F)c2)sc1C(=O)N[C@H]1CCCNC1 [AZD7762] (partner 0.2 µM)
A digest of the protocol:
as §1

Compound in the assay “Bexarotene + Vorinostat”: C=C(c1ccc(C(=O)O)cc1)c1cc2c(cc1C)C(C)(C)CCC2(C)C [Bexarotene] + O=C(CCCCCCC(=O)Nc1ccccc1)NO [Vorinostat] (partner 1 µM)
The gist of the method: as §1

Take LK-2: the relative viability with Bexarotene + Palbociclib (first compound 0.08 µM) was 0.656; with Bexarotene + Palbociclib (first compound 0.253 µM), 0.825; with Bexarotene + Palbociclib (first compound 0.8 µM), 0.702; in the assay with Bexarotene + Palbociclib (first compound 2.53 µM), 0.695; with Bexarotene + Palbociclib (first compound 8 µM), 0.669; with Bexarotene + Crizotinib (first compound 0.08 µM) it was 0.309. Moreover, the relative viability with Bexarotene + Crizotinib (first compound 0.253 µM) stood at 0.213; in the assay with Bexarotene + Crizotinib (first compound 0.8 µM), 0.206; with Bexarotene + Crizotinib (first compound 2.53 µM) it was 0.221; with Bexarotene + Crizotinib (first compound 8 µM), 0.247; with Bexarotene + AZD7762 (first compound 0.08 µM), 0.675; in the assay with Bexarotene + AZD7762 (first compound 0.253 µM), 0.516. Also, the relative viability in the assay with Bexarotene + AZD7762 (first compound 0.8 µM) came to 0.547; in the assay with Bexarotene + AZD7762 (first compound 2.53 µM) it was 0.433; with Bexarotene + AZD7762 (first compound 8 µM), 0.418; with Bexarotene + Vorinostat (first compound 0.08 µM), 0.337; with Bexarotene + Vorinostat (first compound 0.253 µM), 0.278; with Bexarotene + Vorinostat (first compound 0.8 µM) it was 0.342. For the same cell line, the relative viability with Bexarotene + Vorinostat (first compound 2.53 µM) was 0.277; with Bexarotene + Vorinostat (first compound 8 µM), 0.332.
Consider LOU-NH91, for which the relative viability with Bexarotene + Palbociclib (first compound 0.08 µM) worked out at 0.544; in the assay with Bexarotene + Palbociclib (first compound 0.253 µM), 0.507; with Bexarotene + Palbociclib (first compound 0.8 µM) it was 0.485; in the assay with Bexarotene + Palbociclib (first compound 2.53 µM) it was 0.528; in the assay with Bexarotene + Palbociclib (first compound 8 µM), 0.551; in the assay with Bexarotene + Crizotinib (first compound 0.08 µM), 0.767. For the same cell line, the relative viability with Bexarotene + Crizotinib (first compound 0.253 µM) amounted to 0.73; with Bexarotene + Crizotinib (first compound 0.8 µM), 0.696; with Bexarotene + Crizotinib (first compound 2.53 µM) it was 0.686; in the assay with Bexarotene + Crizotinib (first compound 8 µM), 0.639; with Bexarotene + AZD7762 (first compound 0.08 µM), 0.85; in the assay with Bexarotene + AZD7762 (first compound 0.253 µM) it was 0.766. Besides, the relative viability amounted to 0.759 with Bexarotene + AZD7762 (first compound 0.8 µM); 0.741 in the assay with Bexarotene + AZD7762 (first compound 2.53 µM); 0.712 in the assay with Bexarotene + AZD7762 (first compound 8 µM); 0.973 in the assay with Bexarotene + Vorinostat (first compound 0.08 µM); 0.956 with Bexarotene + Vorinostat (first compound 0.253 µM); 0.933 with Bexarotene + Vorinostat (first compound 0.8 µM). Further, the relative viability with Bexarotene + Vorinostat (first compound 2.53 µM) was 0.836; with Bexarotene + Vorinostat (first compound 8 µM), 0.849.
As to LU99A, the relative viability was found to be 0.449 with Bexarotene + Palbociclib (first compound 0.08 µM); 0.395 with Bexarotene + Palbociclib (first compound 0.253 µM); 0.355 with Bexarotene + Palbociclib (first compound 0.8 µM); 0.468 in the assay with Bexarotene + Palbociclib (first compound 2.53 µM); 0.371 with Bexarotene + Palbociclib (first compound 8 µM); 0.495 in the assay with Bexarotene + Crizotinib (first compound 0.08 µM). Further, the relative viability was 0.634 with Bexarotene + Crizotinib (first compound 0.253 µM); 0.573 with Bexarotene + Crizotinib (first compound 0.8 µM); 0.524 in the assay with Bexarotene + Crizotinib (first compound 2.53 µM); 0.542 with Bexarotene + Crizotinib (first compound 8 µM); 0.356 in the assay with Bexarotene + AZD7762 (first compound 0.08 µM); 0.444 with Bexarotene + AZD7762 (first compound 0.253 µM). Further, the relative viability stood at 0.391 with Bexarotene + AZD7762 (first compound 0.8 µM); 0.404 with Bexarotene + AZD7762 (first compound 2.53 µM); 0.36 in the assay with Bexarotene + AZD7762 (first compound 8 µM); 0.597 in the assay with Bexarotene + Vorinostat (first compound 0.08 µM); 0.539 with Bexarotene + Vorinostat (first compound 0.253 µM); 0.551 with Bexarotene + Vorinostat (first compound 0.8 µM). Moreover, the relative viability was 0.527 in the assay with Bexarotene + Vorinostat (first compound 2.53 µM) and 0.612 with Bexarotene + Vorinostat (first compound 8 µM).
For the cell line LXF-289, the relative viability stood at 0.636 with Bexarotene + Palbociclib (first compound 0.08 µM); 0.63 with Bexarotene + Palbociclib (first compound 0.253 µM); 0.605 with Bexarotene + Palbociclib (first compound 0.8 µM); 0.593 with Bexarotene + Palbociclib (first compound 2.53 µM); 0.639 with Bexarotene + Palbociclib (first compound 8 µM); 0.901 with Bexarotene + Crizotinib (first compound 0.08 µM). Further, the relative viability in the assay with Bexarotene + Crizotinib (first compound 0.253 µM) was found to be 0.994; in the assay with Bexarotene + Crizotinib (first compound 0.8 µM), 1; with Bexarotene + Crizotinib (first compound 2.53 µM) it was 0.979; with Bexarotene + Crizotinib (first compound 8 µM), 0.973; in the assay with Bexarotene + AZD7762 (first compound 0.08 µM), 1.21; in the assay with Bexarotene + AZD7762 (first compound 0.253 µM), 1.34. In addition, the relative viability came to 1.32 in the assay with Bexarotene + AZD7762 (first compound 0.8 µM); 1.37 in the assay with Bexarotene + AZD7762 (first compound 2.53 µM); 1.48 in the assay with Bexarotene + AZD7762 (first compound 8 µM); 0.906 with Bexarotene + Vorinostat (first compound 0.08 µM); 0.907 with Bexarotene + Vorinostat (first compound 0.253 µM); 0.861 with Bexarotene + Vorinostat (first compound 0.8 µM). Further, the relative viability in the assay with Bexarotene + Vorinostat (first compound 2.53 µM) stood at 0.789; in the assay with Bexarotene + Vorinostat (first compound 8 µM), 0.935.
